Blank lines part the entries; values can stand above or below the molecule they belong to.
Legend:
[1] = room temperature, 2 weeks
Solubility = type: physicochemical
[2] = target: hLRH-1 LBD alone (no lipid added) (Homo sapiens, UniProt O00482); experiment: Native gel; type: binding; conditions: doses up to 100 µM
mouse SF-1 = mouse SF-1 (Mus musculus, UniProt P33242); experiment: RT-qPCR of endogenous target genes in HEK293 cells stably expressing SF-1; type: cell-based; conditions: 10 µM, 24 h, relative to DMSO
hLRH-1 = hLRH-1 (Homo sapiens, UniProt O00482); experiment: RT-qPCR of endogenous target genes in HEK293 cells stably expressing hLRH-1; type: cell-based; conditions: 10 µM, 24 h
SW-13 cell line = conditions: cited from earlier work
LRH-1 = conditions: cited from earlier work
H295R cell line = conditions: cited from earlier work
SF-1 = conditions: read-out: IC50 inverse agonist of SF-1; cited from earlier work
[3] = target: human LRH-1 ligand binding domain, labeled with biotin (human, UniProt O00482 300-541, biotin (site not stated)); experiment: FRET or BRET
Chain of human LRH-1 ligand binding domain, labeled with biotin (O00482 300-541): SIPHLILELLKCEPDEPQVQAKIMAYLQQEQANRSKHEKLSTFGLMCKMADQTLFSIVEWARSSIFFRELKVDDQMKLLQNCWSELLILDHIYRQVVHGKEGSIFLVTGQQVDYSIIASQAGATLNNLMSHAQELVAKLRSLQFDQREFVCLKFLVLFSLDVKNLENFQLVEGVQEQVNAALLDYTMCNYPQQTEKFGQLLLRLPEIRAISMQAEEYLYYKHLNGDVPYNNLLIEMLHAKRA

Chain of hLRH-1 (O00482 whole entry): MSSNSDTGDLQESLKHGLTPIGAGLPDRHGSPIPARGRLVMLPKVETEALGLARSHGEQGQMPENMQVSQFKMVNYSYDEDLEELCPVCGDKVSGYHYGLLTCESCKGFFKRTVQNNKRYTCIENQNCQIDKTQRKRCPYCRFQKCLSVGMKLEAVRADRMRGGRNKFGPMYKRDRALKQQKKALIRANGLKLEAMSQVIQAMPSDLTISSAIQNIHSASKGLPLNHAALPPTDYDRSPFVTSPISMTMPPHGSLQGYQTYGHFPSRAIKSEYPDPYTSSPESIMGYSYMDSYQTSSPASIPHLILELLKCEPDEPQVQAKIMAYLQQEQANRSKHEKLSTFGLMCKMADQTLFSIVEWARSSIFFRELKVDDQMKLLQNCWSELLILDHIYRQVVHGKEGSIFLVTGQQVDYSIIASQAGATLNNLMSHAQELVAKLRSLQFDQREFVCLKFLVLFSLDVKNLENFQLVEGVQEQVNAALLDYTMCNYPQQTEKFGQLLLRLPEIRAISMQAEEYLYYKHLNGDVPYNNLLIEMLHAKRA
Chain of hLRH-1 LBD alone (no lipid added) (O00482 300-539 limits assumed): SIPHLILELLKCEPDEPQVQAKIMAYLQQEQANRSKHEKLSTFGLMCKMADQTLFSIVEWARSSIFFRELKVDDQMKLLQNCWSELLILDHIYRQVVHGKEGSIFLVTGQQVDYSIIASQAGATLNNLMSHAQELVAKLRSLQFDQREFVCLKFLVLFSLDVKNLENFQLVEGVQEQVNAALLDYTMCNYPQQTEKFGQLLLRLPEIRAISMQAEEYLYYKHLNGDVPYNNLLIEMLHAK
Chain of mouse SF-1 (P33242 whole entry): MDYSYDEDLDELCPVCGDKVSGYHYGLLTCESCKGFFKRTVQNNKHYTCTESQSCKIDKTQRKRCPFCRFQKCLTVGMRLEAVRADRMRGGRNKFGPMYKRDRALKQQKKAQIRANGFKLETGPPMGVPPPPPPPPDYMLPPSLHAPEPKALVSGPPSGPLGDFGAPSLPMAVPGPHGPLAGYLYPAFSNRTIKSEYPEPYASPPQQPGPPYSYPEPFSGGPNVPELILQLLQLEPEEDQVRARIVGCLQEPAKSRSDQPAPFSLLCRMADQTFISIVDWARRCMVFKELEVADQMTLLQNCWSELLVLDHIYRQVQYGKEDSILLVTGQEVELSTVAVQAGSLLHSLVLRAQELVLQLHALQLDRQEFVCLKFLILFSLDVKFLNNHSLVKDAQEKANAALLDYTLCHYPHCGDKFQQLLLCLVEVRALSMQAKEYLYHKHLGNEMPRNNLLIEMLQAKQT

Molecule: C=C(c1ccccc1)[C@@]12CCC[C@@H]1CC(CCCCCC)=C2CCCO (racemic) [Compound 18s, rac-(1R,5R)-3-Hexyl-1-(phenylvinyl)-2-(propan-3-ol)-bicyclo[3.-3.0]oct-2-ene]
- shift in hLRH-1 LBD native PAGE migration [2]: can consistently shift hLRH-1 LBD migration in this native gel assay, albeit with reduced potency as compared to 24-exo

Molecule: C=C(c1ccccc1)[C@@]12CC[C@@H](O)[C@@H]1CC(CCCCCC)=C2c1ccccc1 (racemic) [Compound 24-exo, rac-(1R,5R,6R)-3-Hexyl-6-hydroxy-2-phenyl-1-(phenylvinyl)-bicyclo[3.3.0]oct-2-ene]
- SF-1-mediated transcription of endogenous SHP, StAR, G0S2 and MeOX1 target genes (mouse SF-1): significantly activate
- solubility, in words (Solubility): reasonable solubility in polar solvents

Molecule: CCCCCCCOc1ccc(O)cc1 [Compound 8, p-heptyloxyphenol]
- proliferation of SW-13 (SF-1 negative) (SW-13 cell line): had the same effect
- activity against LRH-1 (LRH-1): no activity
- proliferation of H295R (H295R cell line): inhibit proliferation

Molecule: CCOC(=O)C(C)Oc1cccc2c(=O)n(CC(=O)Nc3ccc(OC)cc3)ccc12 (centres unmarked) [Compound 9]
- IC50 (SF-1): 200 nM
- effect on SW-13 (SF-1 negative) (SW-13 cell line; 10 µM): little effect
- doxycycline (DOX) induced proliferation of H295R (H295R cell line; 10 µM): modestly suppressed

Now from value to molecule, other results behind:

- stability in CDCl3 in the presence of daylight [1]: stable
Molecule: C=C(c1ccccc1)[C@@]12CCC[C@@H]1CC(CCCCCC)=C2c1ccccc1 (racemic) [Compound 18a, rac-(1R,5R)-3-Hexyl-2-phenyl-1-(1-phenylvinyl)-bicyclo[3.3.0]oc-t-2-ene]

- solubility, in words (Solubility): very poor solubility in aqueous media
Molecule: C=C(CCCC)[C@@]12CCC[C@@H]1CC(CCCCCC)=C2c1ccccc1 (racemic) [Compound 18j, rac-(1R,5R)-1-(Hex-1-en-2-yl)-3-hexyl-2-phenyl-bicyclo[3.3.0]oct-2-ene]
- shift in hLRH-1 LBD native PAGE migration [2]: does not appear competent to shift hLRH-1 LBD migration

- SF-1-mediated transcription of endogenous SHP, StAR, G0S2 and MeOX1 target genes (mouse SF-1): significantly activate
- solubility, in words (Solubility): improved solubility
- LRH-1 transcription of the SHP and MeOx1 genes (hLRH-1): failed to activate
- LRH-1 transcription of the StAR and G0S2 genes (hLRH-1): activated
Molecule: C=C(c1ccccc1)[C@@]12CN(C)C[C@@H]1CC(CCCCCC)=C2c1ccccc1 (racemic) [Compound 20a]

- binding result [3]: binds
B1: biotin-labeled peptide derived from TIF-2 amino acids 737-757 (peptide)
peptide: QEPVSPKKKENALLRYLLDKDDTKD
HELM: PEPTIDE1{[O=C1N[C@H]2[C@H](CS[C@H]2CCCCC(=O)[*:2])N1].Q.E.P.V.S.P.K.K.K.E.N.A.L.L.R.Y.L.L.D.K.D.D.T.K.D.[am]}$$$$V2.0
SMILES: CC(C)C[C@H](NC(=O)[C@H](C)NC(=O)[C@H](CC(N)=O)NC(=O)[C@H](CCC(=O)O)NC(=O)[C@H](CCCCN)NC(=O)[C@H](CCCCN)NC(=O)[C@H](CCCCN)NC(=O)[C@@H]1CCCN1C(=O)[C@H](CO)NC(=O)[C@@H](NC(=O)[C@@H]1CCCN1C(=O)[C@H](CCC(=O)O)NC(=O)[C@H](CCC(N)=O)NC(=O)CCCC[C@@H]1SC[C@@H]2NC(=O)N[C@@H]21)C(C)C)C(=O)N[C@@H](CC(C)C)C(=O)N[C@@H](CCCNC(=N)N)C(=O)N[C@@H](Cc1ccc(O)cc1)C(=O)N[C@@H](CC(C)C)C(=O)N[C@@H](CC(C)C)C(=O)N[C@@H](CC(=O)O)C(=O)N[C@@H](CCCCN)C(=O)N[C@@H](CC(=O)O)C(=O)N[C@@H](CC(=O)O)C(=O)N[C@H](C(=O)N[C@@H](CCCCN)C(=O)N[C@@H](CC(=O)O)C(N)=O)[C@@H](C)O
